A short description of data set [1]: Pharmacokinetics in mice after intravenous injection or gavage. As to conditions: BALB/c, mouse, plasma.
Experimental: (§1) The compounds of the present invention were administered to test animals in the form of 5% DMSO + 30% PEG400 + 65% physiological saline, 10% DMSO + 10% Kolliphor HS15 + 80% Saline, 10% DMSO + 89% (25% SBE-B-CD) + (2% HCl), 20% PEG400 + 80% sterile water for injection, or 10% DMA+ 10% HS15 + 30% PEG400 + 50% sterile aqueous solution for injection. Animals were fasted for 12 hours before administration but had free access to water. For the intravenous administration group, the dose was 1 mg/kg. Blood samples (approximately 0.15 mL) were collected intravenously at the following time points after administration: 0.083, 0.25, 0.5, 1.0, 2.0, 4.0, 6.0, 8.0 and 24 h (dogs) or 0.083, 0.25, 0.5, 1.0, 2.0, 5.0, 7.0 and 24 h (mice and rats) or 0.083, 0.25, 0.5, 1.0, 2.0, 6.0, 8.0 and 24 h (monkeys). EDTA-K2 was pre-added to the blood collection tube as an anticoagulant. The blood samples were centrifuged at 12,000 rpm for 2 minutes, and plasma was collected and stored at -20 °C or - 70 °C. For the gavage administration group, the dosage was 1 mg/kg (mice, dogs, and monkeys) or 5 mg/kg (rats). After administration, venous blood samples (approximately 0.15 mL) were collected at the following time points: 0.25, 0.5, 1.0, 2.0, 4.0, 6.0, 8.0, and 24 h (dogs) or 0.25, 0.5, 1.0, 2.0, 5.0, 7.0, and 24 h (mice and rats) or 0.25, 0.5, 1.0, 2.0, 6.0, 8.0, and 24 h (monkeys). EDTA-K2 was pre-added to the blood collection tube as an anticoagulant. The blood samples were centrifuged at 12,000 rpm for 2 minutes, and plasma was collected and stored at -20 °C or -70 °C.
(§2) The collected plasma samples were processed (frozen plasma was thawed at room temperature, vortexed for 15 s to mix, 10-20 µL of plasma was taken, 120-150 µL of acetonitrile solution containing internal standard was added, vortexed for 5 min to mix, centrifuged at 4,000 rpm for 5 min, 100 µL of supernatant was taken, and 120-150 Ml/water (v/v = 1/1) was added and mixed). The concentration of compounds in the plasma was then analyzed by LC-MS/MS.
The next data set concerns DLD-1 BRCA2(-/-) cells. The data set is described as follows: Inhibition of proliferation of DLD-1 BRCA2(-/-) cells (CTG method). The data set is classed as cell-based. Particulars: Homo sapiens, DLD-1, 168 h; 7 days incubation, CellTiter-Glo. The procedure: • 1. Cell Pretreatment: DLD-1 BRCA2(-/-) cells were cultured in growth medium 1640 + 10% FBS (fetal bovine serum) + 1% Penicillin-Streptomycin. Cells in the logarithmic growth phase were digested with trypsin-EDTA, centrifuged, and resuspended. DLD-1 BRCA2(-/-) cells were seeded at 1,000 cells/well in sterile 96-well opaque plates, 75 µl per well. After seeding, the cell culture plates were incubated overnight at 37 °C with 5% CO2 before adhesion, followed by treatment with the test compounds. • 2. DLD-1 BRCA2(-/-) Cell Drug Treatment: The test compound was prepared as a 10 mM stock solution using DMSO. The test compound was then diluted to a 4× working solution using growth medium (starting at 40 µM, with 9 4-fold dilutions). 25 µl of 4× working solution was added to each well to achieve final concentrations of 10000, 2500, 625, 156, 39, 9.7, 2.4, 0.61, and 0.152 nM, respectively. Blank control wells containing the same DMSO concentration were also included, with three replicates for each concentration. After adding the test compound, the cells were incubated at 37 °C with 5% CO2 for 7 days. • 3. After incubation, 100 µl of CellTiter-Glo® Reagent was added to each well, and […] intensity was measured. A curve was fitted using GraphPad software, and the IC50 value for cell proliferation inhibition was calculated.

Another data set has as its system MDA-MB-436 cells. The data set can be described thus: Inhibition of proliferation of MDA-MB-436 cells (CellTiter-Glo). The data set is classed as cell-based. As to conditions: Homo sapiens, MDA-MB-436, 168 h, 7 days incubation. The procedure: • 1. Cell Pretreatment: MDA-MB-436 cells were cultured in DMEM + 10% FBS + 1% penicillin-dip antibiotics + 1% ITS + 16 µg/ml glutathione. Cells in the logarithmic growth phase were digested with trypsin-EDTA, centrifuged and resuspended, and then seeded at a rate of 500-1000 cells/well in sterile 96-well opaque plates, 90 µl per well. After seeding, the cell culture plates were incubated overnight at 37°C with 5% CO2 before drug treatment. • 2. Drug treatment of MDA-MB-436 cells: The test compound was prepared as a 10 mM stock solution using DMSO. The drug was then diluted to a 10× working solution using growth medium (the compound was started at 100 µM and diluted 4-fold to achieve 9 concentrations). 10 µl of the 10× working solution was added to each well to achieve final drug concentrations of 10000, 2500, 625, 156, 39, 9.7, 2.4, 0.61, and 0.152 nM, respectively. Blank control wells containing the same DMSO concentration were also included, with three replicates for each concentration. After drug addition, the cells were incubated at 37°C with 5% CO2 for 7 days. • 3. After incubation, 100 µl of CellTiter-Glo® Reagent was added to each well, and luminescence was measured. The IC50 value of cell proliferation inhibition was calculated using GraphPad software to fit the curve. Table E: Results of the inhibitory effect of the compound of this invention on the proliferation of MDA-MB-436 cells.
(In general: Cellular ATP, detected with luciferase, serves as a proxy for viable cell number.)

Data set [2] in a line: Pharmacokinetics in SD rats after intravenous injection or gavage. As to conditions: rat, plasma.
Experimental: as §1, §2
Table D Pharmacokinetic parameters of compounds of the present invention in SD rats
A further data set addresses PARP2 (Homo sapiens, UniProt Q9UGN5). The data set can be described thus: biochemical.
The target of another data set is PARP1 (Homo sapiens, UniProt P09874). The data set can be described thus: Inhibition of PARP1 enzyme activity (ELISA, chemiluminescence). The data set is classed as biochemical. As to conditions: for IC50: ELISA, histone-coated plate, NAD+, 60 min at 25 °C; for Selectivity PARP2/PARP1: ratio of PARP2 IC50 to PARP1 IC50. A general note: In an ELISA, binding on a coated surface is turned into a signal by an enzyme label.
Chain of PARP1 (P09874 whole entry): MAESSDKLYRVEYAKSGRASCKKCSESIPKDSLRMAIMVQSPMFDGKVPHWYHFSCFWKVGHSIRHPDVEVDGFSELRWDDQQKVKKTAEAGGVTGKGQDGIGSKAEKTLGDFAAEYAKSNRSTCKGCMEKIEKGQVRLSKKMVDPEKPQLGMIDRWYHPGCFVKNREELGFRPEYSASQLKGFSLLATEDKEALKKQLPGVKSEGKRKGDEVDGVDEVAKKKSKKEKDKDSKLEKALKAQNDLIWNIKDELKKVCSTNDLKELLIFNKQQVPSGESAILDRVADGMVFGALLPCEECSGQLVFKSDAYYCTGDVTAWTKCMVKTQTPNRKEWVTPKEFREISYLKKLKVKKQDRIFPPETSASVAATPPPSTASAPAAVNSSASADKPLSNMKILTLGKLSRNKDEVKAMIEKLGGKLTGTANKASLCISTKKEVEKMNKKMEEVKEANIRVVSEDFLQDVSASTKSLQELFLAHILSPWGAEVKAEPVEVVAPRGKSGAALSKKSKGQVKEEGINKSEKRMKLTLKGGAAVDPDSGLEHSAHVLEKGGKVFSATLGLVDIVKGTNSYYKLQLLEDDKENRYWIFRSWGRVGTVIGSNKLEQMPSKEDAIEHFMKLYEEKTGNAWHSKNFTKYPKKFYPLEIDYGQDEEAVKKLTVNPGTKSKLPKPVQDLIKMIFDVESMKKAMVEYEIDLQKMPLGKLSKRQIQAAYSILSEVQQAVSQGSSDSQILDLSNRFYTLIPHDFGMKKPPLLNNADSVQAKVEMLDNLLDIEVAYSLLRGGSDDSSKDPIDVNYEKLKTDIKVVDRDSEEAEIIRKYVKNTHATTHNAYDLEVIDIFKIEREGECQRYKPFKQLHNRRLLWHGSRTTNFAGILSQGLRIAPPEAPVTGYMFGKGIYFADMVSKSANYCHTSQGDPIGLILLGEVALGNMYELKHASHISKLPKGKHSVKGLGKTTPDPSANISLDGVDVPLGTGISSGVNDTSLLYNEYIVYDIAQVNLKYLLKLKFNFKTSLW

These results are taken from patent EP4755880A1, “SUBSTITUTED NITROGEN-CONTAINING BICYCLIC COMPOUND AND USE THEREOF” (Sunshine Lake Pharma Co., Ltd., priority 2023, dated 2025).

Chain of PARP2 (Q9UGN5 whole entry): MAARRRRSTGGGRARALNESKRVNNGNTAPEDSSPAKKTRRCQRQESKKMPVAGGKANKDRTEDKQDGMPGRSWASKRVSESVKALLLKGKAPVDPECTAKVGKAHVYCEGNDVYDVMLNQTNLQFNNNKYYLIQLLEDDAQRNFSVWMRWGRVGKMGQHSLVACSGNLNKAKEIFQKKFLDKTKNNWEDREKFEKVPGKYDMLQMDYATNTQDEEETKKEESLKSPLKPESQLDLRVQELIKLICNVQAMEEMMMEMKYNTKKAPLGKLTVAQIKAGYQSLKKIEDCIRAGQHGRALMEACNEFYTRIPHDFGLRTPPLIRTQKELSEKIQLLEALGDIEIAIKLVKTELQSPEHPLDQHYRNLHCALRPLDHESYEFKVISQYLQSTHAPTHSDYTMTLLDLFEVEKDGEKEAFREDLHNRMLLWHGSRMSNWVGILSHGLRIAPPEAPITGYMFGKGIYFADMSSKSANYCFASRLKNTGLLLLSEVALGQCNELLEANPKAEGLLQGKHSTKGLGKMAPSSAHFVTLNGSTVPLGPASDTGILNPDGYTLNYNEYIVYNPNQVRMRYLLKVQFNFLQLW
Experimental for PARP1: Experimental Objective: To evaluate the inhibitory effect of the compounds of the present invention on the enzyme activities of PARP1 and PARP2 using ELISA.
• 1. histone-coated 384-well plates was prepared: 25 µL of histone solution was added to each well and incubated overnight at 4 °C. • 2. PBST buffer, blocking buffer (PBS buffer with 5% BSA and 0.05% Tween-20 added) and detection buffer (20 mM HEPES pH 7.5 + 100 mM NaCl + 2 mM DTT + 0.002% Tween-20 + 0.1% BSA) were prepared. • 3. The histone-coated 3 84-well plate was washed three times with PBST buffer, blocked at room temperature with 50 µL blocking buffer for 1 hour, and then washed three times with PBST buffer. • 4. Test compounds were prepared as 2000-fold stock solutions in DMSO. 50 nL of the stock solution was mixed with 19.95 µL detection buffer, and 5 µL of the gradient-diluted test compound was transferred to each well. • 5. Enzymatic reaction (PARP1): PARP1 & DNA mix was pre-incubated at 25 °C for 10 minutes. 10 µL of the PARP1 & DNA mix was added to each well and incubated with the test compound at room temperature for 10 minutes. […] Finally, the 384-well plate was washed three times with PBST buffer. Enzymatic reaction (PARP2): PARP2 was pre-incubated at 25 °C for 10 minutes. 10 µL of PARP2 was added to each well and incubated with the test compound at room temperature for 10 minutes. […] Finally, the 384-well plate was washed three times with PBST buffer. • 6. Detection (PARP1): 20 µL of anti-Poly/Mono-ADP Ribose Rabbit mAb was added and incubated at room temperature for 1.5 hours, followed by three washes of the 384-well plate with PBST buffer. Then, 20 µL of diluted anti-rabbit IgG, HRP-linked Antibody (diluted 1:2000 in blocking buffer) was added and incubated at room temperature for 1 hour. After washing the plate three times with PBST buffer, 25 µL of a 1:1 mixture of Femto-ECL Substrate A and Femto-ECL Substrate B was added. Detection (PARP2): 25 µL of Strep-HRP was added and incubated at room temperature for 1 hour, followed by three washes of the 384-well plate with PBS buffer. Then, 25 µL of a 1:1 mixture of Femto-ECL Substrate A and Femto-ECL Substrate B was added. • 7. Chemiluminescence intensity was measured using an Envision multimode microplate reader. • 8. Data Processing
The inhibition rate was calculated in Excel using formula (1). inh% = (Max−Signal)/(Max−Min)*100 [formula]
The IC50 value was obtained by fitting the data in XL-Fit using formula (2). Y = bottom + (top−bottom)/(1+(IC50/X)*HillSlope); [formula] wherein Y is the inhibition percentage and X is the compound concentration.

What is called AUC(0-t) is exposure summed from dosing to a finite time, without extrapolation to infinity. High values mean high exposure, low ones low exposure. Usually Cmax stands for the maximum level reached in the sampled fluid or tissue. For orientation: half-life means how long it takes for the measured level to halve. A lower half-life goes with fast loss. For orientation: IC50 means the concentration that inhibits the measured activity by half. In the case of `CNC(=O)c1ccc(N2CCN(Cc3cc(OC(F)F)c4nc(C)c(=O)[nH]c4c3)CC2)c(C)n1` [Example 52, 5-(4-((8-(difluoromethoxy)-2-methyl-3-oxo-3,4-dihydroquinoxalin-6-yl)methyl)piperazin-1-yl)-N,6-dimethylpicolinamide], the AUC(0-t) in data set [1] (iv, 2 mg/kg) was 17800 ng·h/mL; in data set [1] (po, 5 mg/kg), 67100 ng·h/mL; in data set [2] (iv, 1 mg/kg), 3520 ng·h/mL; in data set [2] (po, 5 mg/kg), 31100 ng·h/mL. The Cmax in data set [1] (iv, 2 mg/kg) is 7220 ng/mL; in data set [1] (po, 5 mg/kg), 10700 ng/mL; in data set [2] (iv, 1 mg/kg), 1190 ng/mL; in data set [2] (po, 5 mg/kg) it was 2580 ng/mL. Besides, the half-life in data set [1] (iv, 2 mg/kg) is 2.5 h; in data set [1] (po, 5 mg/kg) it was 2.8 h; in data set [2] (iv, 1 mg/kg), 3.5 h; in data set [2] (po, 5 mg/kg), 3.8 h. In addition, the half-inhibitory concentration (IC50) with DLD-1 BRCA2(-/-) cells stood at 2.2 nM; in the data set on MDA-MB-436 cells, 1.4 nM.

Consider `CNC(=O)c1ccc(N2CCN(Cc3cc(OC4CCCCC4)c4nc(C)c(=O)[nH]c4c3)CC2)c(F)n1` [Example 72, 5-(4-((8-(cyclohexyloxy)-2-methyl-3-oxo-3,4-dihydroquinoxalin-6-yl)methyl)piperazin-1-yl)-6-fluoro-N-methylpyridine amide], for which the IC50 was 9.1 nM in the data set on DLD-1 BRCA2(-/-) cells, 12 nM with MDA-MB-436 cells, 992 nM at PARP2 and 1.3 nM at PARP1. On PARP1, the “Selectivity PARP2/PARP1” value is recorded as 756.9.

Take `CNC(=O)c1ccc2c(n1)COC[C@H]1CN(Cc3cc(OC(F)F)c4nc(C)c(=O)[nH]c4c3)CCN21` [Example 59, (R)-3-((8-(difluoromethoxy)-2-methyl-3-oxo-3,4-dihydroquinoxalin-6-yl)methyl)-N-methyl-2,3,4,4a,5,7-hexahydro-1H-pyrazino[2,1-c]pyrido[3,2-e][1,4]oxazepine-9-carboxamide]: the IC50 in the data set on DLD-1 BRCA2(-/-) cells came to 8 nM; in the data set on MDA-MB-436 cells, 26.3 nM; on PARP2, 1220 nM; at PARP1 it was 1.9 nM. Also, the “Selectivity PARP2/PARP1” value at PARP1 stood at 650.4.

As for `Cc1nc2c(OC(F)F)cc(CN3CCN(c4ccc(C(=O)N[C@H]5C[C@H]5F)nc4F)CC3)cc2[nH]c1=O` [Example 57, 5-(4-((8-(difluoromethoxy)-2-methyl-3-oxo-3,4-dihydroquinoxalin-6-yl)methyl)piperazin-1-yl)-6-fluoro-N-((1S,2R)-2-fluorocyclopropyl)picolinamide], the half-maximal inhibitory concentration (IC50) in the data set on DLD-1 BRCA2(-/-) cells was determined as 2.9 nM; with MDA-MB-436 cells, 1.7 nM; against PARP2, 79.5 nM; against PARP1, 1.7 nM. The “Selectivity PARP2/PARP1” value at PARP1 is recorded as 47.3.

Take `CC#Cc1cc(CN2CCN(c3ccc(C(=O)NC)nc3C)CC2)c(F)c2[nH]c(=O)c(C)nc12` [Example 45, 5-(4-((5-fluoro-2-methyl-3-oxo-8-(prop-1-yn-1-yl)-3,4-dihydroquinoxalin-6-yl)methyl)piperazin-1-yl)-N,6-dimethylpicolinamide]: the IC50 in the data set with DLD-1 BRCA2(-/-) cells was 12 nM; in the data set on MDA-MB-436 cells it was 11.1 nM; at PARP2 it was > 10000 nM; at PARP1, 7.7 nM. Moreover, at PARP1, the “Selectivity PARP2/PARP1” value is >1290.7.

On to `CC#Cc1cc(CN2CC=C(c3ccc(C(=O)NC4CC4)nc3F)CC2)cc2[nH]c(=O)c(C)nc12` [Example 39, N-cyclopropyl-2-fluoro-1'-((2-methyl-3-oxo-8-(prop-1-yn-1-yl)-3,4-dihydroquinoxalin-6-yl)methyl)-1',2',3',6'-tetrahydro-[3,4'-bipyridine]-6-carboxamide], for which the IC50 in the data set with DLD-1 BRCA2(-/-) cells was 7.7 nM; in the data set with MDA-MB-436 cells, < 0.038 nM; on PARP2, 599 nM; against PARP1, 2.9 nM. Also, the “Selectivity PARP2/PARP1” value on PARP1 amounted to 206.8.

With `CNC(=O)c1ccc(N2CCN(Cc3cc(Oc4ccc(C#N)cc4)c4nc(C)c(=O)[nH]c4c3)CC2)c(F)n1` [Example 32, 5-(4-((8-(4-cyanophenoxy)-2-methyl-3-oxo-3,4-dihydroquinoxalin-6-yl)methyl)piperazin-1-yl)-6-fluoro-N-methylpicolinamide], the IC50 in the data set on DLD-1 BRCA2(-/-) cells was 68.8 nM; in the data set with MDA-MB-436 cells, 40.1 nM; on PARP2 it was > 10000 nM; on PARP1, 2.8 nM. For the same compound, the “Selectivity PARP2/PARP1” value on PARP1 is >833.

For `CNC(=O)c1ccc(N2CCN(Cc3cc(OC(F)F)c4cc(C)c(=O)[nH]c4c3)CC2)c(F)n1` [Example 55, 5-(4-((5-(difluoromethoxy)-3-methyl-2-oxo-1,2-dihydroquinolin-7-yl)methyl)piperazin-1-yl)-6-fluoro-N-methylpicolinamide], the IC50 with DLD-1 BRCA2(-/-) cells was 3.9 nM; in the data set with MDA-MB-436 cells, < 0.038 nM; against PARP2, 14.3 nM; on PARP1 it was 1.9 nM. Moreover, the “Selectivity PARP2/PARP1” value on PARP1 stood at 7.6.

For `Cc1nc2c(OC(F)F)cc(CN3CC=C(c4ccc(C(=O)NC5CC5)nc4F)CC3)cc2[nH]c1=O` [Example 42, N-cyclopropyl-1'-((8-(difluoromethoxy)-2-methyl-3-oxo-3,4-dihydroquinoxalin-6-yl)methyl)-2-fluoro-1',2',3',6'-tetrahydro-[3,4'-bipyridine]-6-carboxamide], the AUC(0-t) in data set [1] (iv, 2 mg/kg) was found to be 18100 ng·h/mL; in data set [1] (po, 5 mg/kg) it was 61500 ng·h/mL. Besides, the Cmax in data set [1] (iv, 2 mg/kg) was found to be 8180 ng/mL; in data set [1] (po, 5 mg/kg) it was 15100 ng/mL. Also, the half-life in data set [1] (iv, 2 mg/kg) is 2.5 h; in data set [1] (po, 5 mg/kg), 2.5 h. Also, the IC50 in the data set on DLD-1 BRCA2(-/-) cells is 7 nM; in the data set on MDA-MB-436 cells it was 0.3 nM; at PARP2, 221 nM; against PARP1 it was 0.9 nM. The “Selectivity PARP2/PARP1” value on PARP1 was 239.7.

Turning to `C#Cc1cc(CN2CCN(c3ccc(C(=O)NC)nc3F)CC2)cc2[nH]c(=O)c(C)nc12` [Example 20, 5-(4-((8-ethynyl-2-methyl-3-oxo-3,4-dihydroquinoxalin-6-yl)methyl)piperazin-1-yl)-6-fluoro-N-methylpicolinamide], the IC50 is 2.4 nM in the data set with DLD-1 BRCA2(-/-) cells, 3.3 nM with MDA-MB-436 cells, 68.9 nM at PARP2 and 0.6 nM against PARP1. Further, the “Selectivity PARP2/PARP1” value on PARP1 is reported as 124.8.

As to `CNC(=O)c1ccc(N2CCN(Cc3cc(OC(F)F)c4nc(C)c(=O)[nH]c4c3)CC2)cn1` [Example 49, 5-(4-((8-(difluoromethoxy)-2-methyl-3-oxo-3,4-dihydroquinoxalin-6-yl)methyl)piperazin-1-yl)-N-methylpicolinamide], the half-maximal inhibitory concentration (IC50) in the data set on DLD-1 BRCA2(-/-) cells came to 12.9 nM; in the data set on MDA-MB-436 cells, 9.1 nM; against PARP2, 54 nM; against PARP1 it was 3.2 nM. Besides, the “Selectivity PARP2/PARP1” value at PARP1 came out at 17.0.

For the compound `CC#Cc1cc(CN2CCN(c3ccc(C#N)cn3)CC2)cc2[nH]c(=O)c(C)nc12` [Example 43, 6-(4-((2-methyl-3-oxo-8-(prop-1-yn-1-yl)-3,4-dihydroquinoxalin-6-yl)methyl)piperazin-1-yl)nicotinonitrile], the half-maximal inhibitory concentration (IC50) in the data set with DLD-1 BRCA2(-/-) cells came to 27 nM; with MDA-MB-436 cells it was 8 nM; on PARP2, 583 nM; against PARP1, 1.5 nM. The “Selectivity PARP2/PARP1” value on PARP1 turned out to be 398.1.

In the case of `CNC(=O)c1ccc(N2CCN(Cc3cc(-c4cccnc4)c4nc(C)c(=O)[nH]c4c3)CC2)c(F)n1` [Example 11, 6-fluoro-N-methyl-5-(4-((2-methyl-3-oxo-8-(pyridin-3-yl)-3,4-dihydroquinoxalin-6-yl)methyl)piperazin-1-yl)picolinamide], the IC50 in the data set on DLD-1 BRCA2(-/-) cells amounted to 12.9 nM; with MDA-MB-436 cells it was 10.7 nM; at PARP2 it was 676 nM; against PARP1 it was 3.01 nM. Besides, at PARP1, the “Selectivity PARP2/PARP1” value came out at 224.6.
